# Laboratory results: US9486506B2 (Novo Nordisk A/S, priority 2011, dated 2016)
# Numbered stars: 1 amine (or outer) side, 2 acyl side, 3 side chain; on linkers, the order of the positions; unused ones are H or OH. Side chains are listed from the residue outwards. Peptide text beside a SMILES is read from it. * marks the point of attachment. C18 diacid = O=C(O)CCCCCCCCCCCCCCCCC(=O)*; C16 diacid = O=C(O)CCCCCCCCCCCCCCC(=O)*; γGlu = O=C(O)[C@H](CCC(=O)[*:2])N[*:1]; AEEA = NCCOCCOCC(=O)O
# Columns and labels:
# [1] = target: T1, glucagon receptor (Homo sapiens, UniProt P47871); experiment: Assay (I) Glucagon activity (cAMP biosensor, FLIPR); type: cell-based
# T1 construct: expressed in transfected cells
# T1 sequence (P47871 26-477): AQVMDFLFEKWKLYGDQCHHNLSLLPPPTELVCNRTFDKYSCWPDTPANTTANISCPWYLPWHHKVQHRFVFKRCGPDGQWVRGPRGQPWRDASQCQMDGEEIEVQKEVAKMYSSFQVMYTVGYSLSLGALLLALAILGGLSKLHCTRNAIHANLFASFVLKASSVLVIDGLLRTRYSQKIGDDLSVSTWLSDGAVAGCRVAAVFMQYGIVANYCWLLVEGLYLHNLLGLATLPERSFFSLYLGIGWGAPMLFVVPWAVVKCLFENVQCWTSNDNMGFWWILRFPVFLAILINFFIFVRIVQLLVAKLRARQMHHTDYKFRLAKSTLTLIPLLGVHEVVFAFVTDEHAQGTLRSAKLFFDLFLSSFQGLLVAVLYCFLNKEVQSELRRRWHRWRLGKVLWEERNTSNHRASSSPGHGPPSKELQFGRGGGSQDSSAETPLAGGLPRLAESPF
# [2] = Assay (X) Chemical stability assessment by RP-UPLC; type: physicochemical; details: pH 8.15, 14 days at 37° C. vs 5° C., 333 μM
# Experimental: Chemical Stability Assessment
# Lyophilized samples were dissolved in buffer (see below for detailed compositions) to a final concentration of 333 μM and a pH of 8.15, and were incubated for 14 days at 5° C. and 37° C. followed by RP-UPLC analysis. Purity was defined as the area percentage of the main peak in relation to the total area of all integrated peaks in each chromatogram. Purity loss after 14 days at 37° C. was determined as the difference in purity between the samples incubated at 5° C. and 37° C., divided by the purity of the sample after incubation for 14 days at 5° C.
# RP-UPLC analysis was performed using a Waters BEH130 2.1 mm×150 mm, 1.7 μm column operated at 50° C. and a flow rate of 0.4 mL/min using a mobile phase system consisting of typically A: 50 mM Phosphate, 10 w/w % Acetonitrile pH 3 and B: 80 v/v Acetonitrile. UV-detection was performed at 215 nm. The typical gradient profile used for most of the samples is shown below.
# For some individual analogues eluting at substantially different retention times compared with the majority of analogues, some adjustments to the gradient profile were made to better enable purity assessment comparison across samples. Also the composition of the channel B mobile phase component was in some of the analyses exchanged for a 90 v/v % Acetonitrile solvent solution in an attempt to better handle carry-over of material from one injection to the next in the sequence. This was however compensated for by recalculating the gradient profile appropriately.
# Buffer: • 50 mM Dinatriumphosphatdihydrat • 184 mM Propylenglycol • 58 mM Phenol • pH adjusted to 8.15 with H3PO4. In cases where pH was adjusted to 8.15 after re-suspension of analogues, 0.2 M NaOH was used. Assay (XI) Pharmacokinetic Study in Minipigs
SMILES,EC50 [1] [pM],Chemical stability [Purity loss/14 days 37 C.] [2] [%]
"CC(C)C[C@H](NC(=O)[C@H](Cc1ccc(O)cc1)NC(=O)[C@H](CCCCN)NC(=O)[C@H](CO)NC(=O)[C@H](Cc1ccc(O)cc1)NC(=O)[C@H](CC(=O)O)NC(=O)[C@H](CO)NC(=O)[C@@H](NC(=O)[C@H](Cc1ccccc1)NC(=O)[C@@H](NC(=O)CNC(=O)[C@H](CCC(N)=O)NC(=O)[C@H](CO)NC(=O)[C@@H](N)Cc1c[nH]cn1)[C@@H](C)O)[C@@H](C)O)C(=O)N[C@@H](CC(=O)O)C(=O)N[C@@H](C)C(=O)N[C@@H](CCCNC(=N)N)C(=O)N[C@@H](CCCNC(=N)N)C(=O)N[C@@H](C)C(=O)N[C@@H](CCC(N)=O)C(=O)N[C@@H](CC(=O)O)C(=O)N[C@@H](Cc1ccccc1)C(=O)N[C@H](C(=O)N[C@@H](CCCCNC(=O)CC[C@H](NC(=O)CC[C@H](NC(=O)COCCOCCNC(=O)COCCOCCNC(=O)CC[C@H](NC(=O)CCCCCCCCCCCCCCC(=O)O)C(=O)O)C(=O)O)C(=O)O)C(=O)N[C@@H](Cc1c[nH]c2ccccc12)C(=O)N[C@@H](CC(C)C)C(=O)N[C@@H](CC(C)C)C(=O)N[C@@H](CO)C(=O)N[C@H](C(=O)O)[C@@H](C)O)C(C)C [Example 83, N^ε24-[(4S)-4-carboxy-4-[[(4S)-4-carboxy-4-[[2-[2-[2-[[2-[2-[2-[[(4S)-4-carboxy-4-(15-carboxypentadecanoylamino)butanoyl]amino]ethoxy]ethoxy]acetyl]amino]ethoxy]ethoxy]acetyl]amino]butanoyl]amino]butanoyl]-[Ala16,Lys24,Leu27,Ser28]-Glucagon]",16,10.3
"CC(C)C[C@H](NC(=O)[C@H](Cc1ccc(O)cc1)NC(=O)[C@H](CCCNC(=N)N)NC(=O)[C@H](CO)NC(=O)[C@H](Cc1ccc(O)cc1)NC(=O)[C@H](CC(=O)O)NC(=O)[C@H](CO)NC(=O)[C@@H](NC(=O)[C@H](Cc1ccccc1)NC(=O)[C@@H](NC(=O)CNC(=O)[C@H](CCC(N)=O)NC(=O)[C@H](CO)NC(=O)[C@@H](N)Cc1c[nH]cn1)[C@@H](C)O)[C@@H](C)O)C(=O)N[C@@H](CC(=O)O)C(=O)N[C@@H](C)C(=O)N[C@@H](CCCNC(=N)N)C(=O)N[C@@H](CCCNC(=N)N)C(=O)N[C@@H](C)C(=O)N[C@@H](CCC(N)=O)C(=O)N[C@@H](CC(=O)O)C(=O)N[C@@H](Cc1ccccc1)C(=O)N[C@H](C(=O)N[C@@H](CCCCNC(=O)CC[C@H](NC(=O)CC[C@H](NC(=O)CC[C@H](NC(=O)CCCCCCCCCCCCCCC(=O)O)C(=O)O)C(=O)O)C(=O)O)C(=O)N[C@@H](Cc1c[nH]c2ccccc12)C(=O)N[C@@H](CC(C)C)C(=O)N[C@@H](CC(C)C)C(=O)N[C@@H](CO)C(=O)N[C@H](C(=O)O)[C@@H](C)O)C(C)C [Example 72, N^ε24-[(4S)-4-carboxy-4-[[(4S)-4-carboxy-4-[[(4S)-4-carboxy-4-(15-carboxypentadecanoylamino)butanoyl]amino]butanoyl]amino]butanoyl]-[Arg12,Ala16,Lys24,Leu27,Ser28]-Glucagon] (H-HSQGTFTSDYSRYLDARRAQDFVK([γGlu-γGlu-γGlu-C16 diacid])WLLST-OH)",16,6.1
"CC(C)C[C@H](NC(=O)[C@H](CC(C)C)NC(=O)[C@H](Cc1c[nH]c2ccccc12)NC(=O)[C@H](CCCCNC(=O)CC[C@H](NC(=O)CC[C@H](NC(=O)COCCOCCNC(=O)COCCOCCNC(=O)CC[C@H](NC(=O)CCCCCCCCCCCCCCCCC(=O)O)C(=O)O)C(=O)O)C(=O)O)NC(=O)[C@@H](NC(=O)[C@H](Cc1ccccc1)NC(=O)[C@H](CC(=O)O)NC(=O)[C@H](CCC(N)=O)NC(=O)[C@H](C)NC(=O)[C@H](CCCNC(=N)N)NC(=O)[C@H](CCCNC(=N)N)NC(=O)[C@H](CC(C)C)NC(=O)[C@H](CC(=O)O)NC(=O)[C@H](CC(C)C)NC(=O)[C@H](Cc1ccc(O)cc1)NC(=O)[C@H](CCCNC(=N)N)NC(=O)[C@H](CO)NC(=O)[C@H](Cc1ccc(O)cc1)NC(=O)[C@H](CC(=O)O)NC(=O)[C@H](CO)NC(=O)[C@@H](NC(=O)[C@H](Cc1ccccc1)NC(=O)[C@@H](NC(=O)CNC(=O)[C@H](CCC(N)=O)NC(=O)[C@H](CO)NC(=O)[C@@H](N)Cc1c[nH]cn1)[C@@H](C)O)[C@@H](C)O)C(C)C)C(=O)NCC(=O)N[C@H](C(=O)O)[C@@H](C)O [Example 88, N^ε24-[(4S)-4-carboxy-4-[[(4S)-4-carboxy-4-[[2-[2-[2-[[2-[2-[2-[[(4S)-4-carboxy-4-(17-carboxyheptadecanoylamino)butanoyl]amino]ethoxy]ethoxy]acetyl]amino]ethoxy]ethoxy]acetyl]amino]butanoyl]amino]butanoyl]-[Arg12,Leu16,Lys24,Leu27,Gly28]-Glucagon] (H-HSQGTFTSDYSRYLDLRRAQDFVK([γGlu-γGlu-AEEA-AEEA-γGlu-C18 diacid])WLLGT-OH)",470,4.7
"CC[C@H](C)[C@H](NC(=O)[C@H](CC(=O)O)NC(=O)[C@H](CC(C)C)NC(=O)[C@H](Cc1ccc(O)cc1)NC(=O)[C@H](CCCCN)NC(=O)[C@H](CO)NC(=O)[C@H](Cc1ccc(O)cc1)NC(=O)[C@H](CC(=O)O)NC(=O)[C@H](CO)NC(=O)[C@@H](NC(=O)[C@H](Cc1ccccc1)NC(=O)[C@@H](NC(=O)CNC(=O)[C@H](CCC(N)=O)NC(=O)[C@H](CO)NC(=O)[C@@H](N)Cc1c[nH]cn1)[C@@H](C)O)[C@@H](C)O)C(=O)N[C@@H](CCCNC(=N)N)C(=O)N[C@@H](CCCNC(=N)N)C(=O)N[C@@H](C)C(=O)N[C@@H](CCC(N)=O)C(=O)N[C@@H](CC(=O)O)C(=O)N[C@@H](Cc1ccccc1)C(=O)N[C@H](C(=O)N[C@@H](CCCCNC(=O)CC[C@H](NC(=O)CC[C@H](NC(=O)CC[C@H](NC(=O)CC[C@H](NC(=O)CCCCCCCCCCCCCCCCC(=O)O)C(=O)O)C(=O)O)C(=O)O)C(=O)O)C(=O)N[C@@H](Cc1c[nH]c2ccccc12)C(=O)N[C@@H](CC(C)C)C(=O)N[C@@H](CC(C)C)C(=O)N[C@@H](CO)C(=O)N[C@H](C(=O)O)[C@@H](C)O)C(C)C [Example 79, N^ε24-[(4S)-4-carboxy-4-[[(4S)-4-carboxy-4-[[(4S)-4-carboxy-4-[[(4S)-4-carboxy-4-(17-carboxyheptadecanoylamino)butanoyl]amino]butanoyl]amino]butanoyl]amino]butanoyl]-[Ile16,Lys24,Leu27,Ser28]-Glucagon]",189,3.8
"CC(C)C[C@H](NC(=O)[C@H](Cc1ccc(O)cc1)NC(=O)[C@H](CCCNC(=N)N)NC(=O)[C@H](CO)NC(=O)[C@H](Cc1ccc(O)cc1)NC(=O)[C@H](CC(=O)O)NC(=O)[C@H](CO)NC(=O)[C@@H](NC(=O)[C@H](Cc1ccccc1)NC(=O)[C@@H](NC(=O)CNC(=O)[C@H](CCC(N)=O)NC(=O)[C@H](CO)NC(=O)[C@@H](N)Cc1c[nH]cn1)[C@@H](C)O)[C@@H](C)O)C(=O)N[C@@H](CCC(=O)O)C(=O)N[C@@H](CO)C(=O)N[C@@H](CCCNC(=N)N)C(=O)N[C@@H](CCCNC(=N)N)C(=O)N[C@@H](C)C(=O)N[C@@H](CCC(N)=O)C(=O)N[C@@H](CC(=O)O)C(=O)N[C@@H](Cc1ccccc1)C(=O)N[C@H](C(=O)N[C@@H](CCCCNC(=O)CC[C@H](NC(=O)CC[C@H](NC(=O)COCCOCCNC(=O)COCCOCCNC(=O)CC[C@H](NC(=O)CCCCCCCCCCCCCCCCC(=O)O)C(=O)O)C(=O)O)C(=O)O)C(=O)N[C@@H](Cc1c[nH]c2ccccc12)C(=O)N[C@@H](CC(C)C)C(=O)N[C@@H](CC(C)C)C(=O)N[C@@H](CO)C(=O)N[C@H](C(=O)O)[C@@H](C)O)C(C)C [Example 14, N^ε24-[(4S)-4-carboxy-4-[[(4S)-4-carboxy-4-[[2-[2-[2-[[2-[2-[2-[[(4S)-4-carboxy-4-(17-carboxyheptadecanoylamino)butanoyl]amino]ethoxy]ethoxy]acetyl]amino]ethoxy]ethoxy]acetyl]amino]butanoyl]amino]butanoyl]-[Arg^12,Glu^15,Lys^24,Leu^27,Ser^25]-Glucagon] (H-HSQGTFTSDYSRYLESRRAQDFVK([γGlu-γGlu-AEEA-AEEA-γGlu-C18 diacid])WLLST-OH; N-terminus and C-terminus assumed)",–,8.6
